Assay results published in patent publication US7288407B2, “Stable cytochrome P450 24 (CYP24) expressing cell line and methods and uses thereof” (Cytochroma, Inc., priority 2002, dated 2007).

Target: T1, CYP24 (Homo sapiens, UniProt Q07973)
T1 construct: The full-length CYP24 cDNA was amplified using one-step RT-PCR kit; expressed in transfected cells
T1 sequence (Q07973 36-514): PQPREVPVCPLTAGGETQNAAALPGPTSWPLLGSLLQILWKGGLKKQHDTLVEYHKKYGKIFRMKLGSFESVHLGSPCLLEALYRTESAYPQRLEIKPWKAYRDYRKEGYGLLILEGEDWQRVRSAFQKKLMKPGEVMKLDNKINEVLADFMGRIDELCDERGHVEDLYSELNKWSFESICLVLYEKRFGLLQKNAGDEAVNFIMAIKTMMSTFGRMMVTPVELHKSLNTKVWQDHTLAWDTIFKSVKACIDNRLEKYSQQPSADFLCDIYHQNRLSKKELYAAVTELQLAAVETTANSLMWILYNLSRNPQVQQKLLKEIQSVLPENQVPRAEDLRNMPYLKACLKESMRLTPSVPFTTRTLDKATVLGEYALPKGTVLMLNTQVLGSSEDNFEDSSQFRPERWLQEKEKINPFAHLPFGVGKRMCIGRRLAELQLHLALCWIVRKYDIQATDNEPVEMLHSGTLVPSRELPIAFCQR
Test: CYP24 enzyme assay using stable CYP24-V79 cells
Assay type: cell-based
Conditions: Bligh-Dyer extraction, organic phase from 3 hours analyzed by HPLC
Description: CYP24/V79 cells were suspended, counted, seeded on well plates and extracted using the Bligh-Dyer extraction method. […] To induce cells, media was removed and the cells washed with 1× PBS buffer. […] Next, a cell suspension was prepared at the day of assay by removing the medium and washing the cell with PBS. 2 ml tripsin/EDTA was added to the plate which was kept in 37° C. for 5 min. Next, 3 ml EDTA medium+1% FCS was added followed by transfer to a 50 ml tube. The plate was washed with 5 ml PBS and mixed. The mix was centrifuged (2,000 rpm, 5 min) and the suspended cells pelleted in DMEM medium+1% BSA. […] About 5 mL 1× PBS buffer was added to collect cells from the plate and then placed in a 50 mL tube followed by repetition with second cell line. About 5 mL 1× PBS buffer was added to further wash the plate and added to the original 50 mL tube. Tubes were centrifuged (2,000 rpm/800 g for 6 minutes) and the supernatant removed. […] The cells were counted via hemocytometer and density adjusted to 250,000 cells/150 μL (1.67 million/1 mL) and then 150 μL added to appropriately labeled wells of 48-well plate. […] The cells were counted and cell density was adjusted to 500,000/150 μL. […] The plate is counted in a scintillation counter. Enzyme activity was then calculated.

CC[C@H]1OC(=O)[C@H](C)[C@@H](O[C@H]2C[C@@](C)(OC)[C@@H](O)[C@H](C)O2)[C@H](C)[C@@H](O[C@@H]2O[C@H](C)C[C@H](N(C)C)[C@H]2O)[C@](C)(O)C[C@@H](C)C(=O)[C@H](C)[C@@H](O)[C@]1(C)O [erythromycin]
effect on CYP24 activity (inhibitor/activator): inhibitors
